According to US11083724B2, “Rimegepant for CGRP related disorders” (Biohaven Pharmaceutical Holding Company Ltd., priority 2018, dated 2021):

Tests used:
patients with migraine = assay: Study 201 (BHV3000-201, NCT03266588): open label long-term safety study, rimegepant 75 mg oral tablet; format: in vivo, human
Description: Clinical Trial-BHV3000-201: Open Label Safety Study in Acute Treatment of Migraine (ClinicalTrials.gov A phase 2⁄3 clinical study is conducted with about 2000 participants, as follows. The purpose of this study is to evaluate safety and tolerability of BHV3000 (rimegepant). Study Design • Study Type: Interventional (Clinical Trial) • Estimated Enrollment: 2000 participants • Intervention Model: Single Group Assignment • Masking: None (Open Label) • Primary Purpose: Treatment • Official Title: A Multicenter, Open Label Long-Term Safety Study of BHV3000 in the Acute Treatment of Migraine • Actual Study Start Date: Aug. 30, 2017 • Estimated Primary Completion Date: July 2019 • Estimated Study Completion Date: July 2019 Arms and Interventions Outcome Measures Primary Outcome Measures: 1. To assess the safety and tolerability of rimegepant (BHV-3000) by measuring the frequency and severity of adverse events and discontinuations due to adverse events [Time Frame: 52 weeks] Number of subjects with treatment-emergent adverse events as assessed through laboratory tests, ECGs, physical exam findings (safety and tolerability) Secondary Outcome Measures: 1. ALT or […] with total bilirubin>2×ULN [Time Frame: 52 weeks] elevated liver function tests 2. hepatic related adverse events and hepatic related adverse events that lead to discontinuation [Time Frame: 52 weeks] adverse events related to liver Results from the clinical trial described in Example 10 are summarized as follows. […] Patients were allowed to treat migraine attacks of all severities (mild to severe) up to once daily for a full year. The initial results for hepatic safety and tolerability of rimegepant 75 mg in study participants is based upon review of both adverse events and regularly scheduled liver function tests. Interim hepatic data were reviewed by an external and independent panel of liver experts. […] In the aggregate, it was noted that compared to migraine trials with drugs other than rimegepant, there was a very low incidence of overall elevations of liver function test abnormalities in rimegepant treated patients (1.0% incidence of serum ALT or […]). Subjects will continue to participate in Study 201 with additional data analyses to be submitted in the NDA and required 120-day safety updates.

[1] = system: subjects with Acute Migraines; assay: Pooled liver function test profile, Study 301 and Study 302; format: in vivo, human
Description: (§1) In a double-blind, randomized, placebo-controlled, multicenter study (Study 301, NCT03235479) adults≥18 years of age with at least a 1-year history of ICHD 3-beta migraine were eligible to participate. Following a 3- to 28-day screening period, subjects were randomized to receive rimegepant 75 mg or matching placebo and instructed to treat a single migraine attack with 1 dose of the blinded study drug (rimegepant or placebo) when headache pain reached moderate or severe intensity. The coprimary endpoints were pain freedom at 2 hours postdose and freedom from the most bothersome symptom (MBS) at 2 hours postdose. Safety assessments included adverse events (AEs), ECGs, vital signs, physical measurements, and routine laboratory tests, including assessment of liver function. Unless stated otherwise, values presented are mean±SD.
as §1, with “302, NCT03237845)” for “301, NCT03235479)”

[2] = pooled Study 301 and 302, n = 1089

With `N[C@@H]1c2cccnc2[C@H](OC(=O)N2CCC(n3c(=O)[nH]c4ncccc43)CC2)CC[C@H]1c1cccc(F)c1F` [Rimegepant, [(5S,6S,9R)-5-amino-6-(2,3-difluorophenyl)-6,7,8,9-tetrahydro-5H-cyclohepta[b]pyridin-9-yl] 4-(2-oxo-3H-imidazo[4,5-b]pyridin-1-yl)piperidine-1-carboxylate] the “>=20.0% decrease in migraines per month, number of subjects” value (patients with migraine; Enrollment Group (2-8)) was 353, the “>=20.0% decrease in migraines per month, percent of subjects” value (patients with migraine; Enrollment Group (2-8)) was 35.2% and the “>=25.0% decrease in migraines per month, number of subjects” value (patients with migraine; Enrollment Group (2-8)) was 308. For the same compound, the “>=25.0% decrease in migraines per month, percent of subjects” value (patients with migraine; Enrollment Group (2-8)) was 30.7%, the “>=30.0% decrease in migraines per month, number of subjects” value (patients with migraine; Enrollment Group (2-8)) was 268 and the “>=30.0% decrease in migraines per month, percent of subjects” value (patients with migraine; Enrollment Group (2-8)) was 26.7%. The “>=35.0% decrease in migraines per month, number of subjects” value (patients with migraine; Enrollment Group (2-8)) was 224, the “>=35.0% decrease in migraines per month, percent of subjects” value (patients with migraine; Enrollment Group (2-8)) was 22.3% and the “>=40.0% decrease in migraines per month, number of subjects” value (patients with migraine; Enrollment Group (2-8)) was 181. For the same compound, the “>=40.0% decrease in migraines per month, percent of subjects” value (patients with migraine; Enrollment Group (2-8)) was 18.0%, the “>=45.0% decrease in migraines per month, number of subjects” value (patients with migraine; Enrollment Group (2-8)) was 144 and the “>=45.0% decrease in migraines per month, percent of subjects” value (patients with migraine; Enrollment Group (2-8)) was 14.3%. For the same compound, the “>=50.0% decrease in migraines per month, number of subjects” value (patients with migraine; Enrollment Group (2-8)) was 113, the “>=50.0% decrease in migraines per month, percent of subjects” value (patients with migraine; Enrollment Group (2-8)) was 11.3% and the “>=20.0% decrease in migraines per month, number of subjects” value (patients with migraine; Enrollment Group (4-14), n 269) was 159. The “>=20.0% decrease in migraines per month, percent of subjects” value (patients with migraine; Enrollment Group (4-14), n 269) was 59.1%, the “>=25.0% decrease in migraines per month, number of subjects” value (patients with migraine; Enrollment Group (4-14), n 269) was 144 and the “>=25.0% decrease in migraines per month, percent of subjects” value (patients with migraine; Enrollment Group (4-14), n 269) was 53.5%. For the same compound, the “>=30.0% decrease in migraines per month, number of subjects” value (patients with migraine; Enrollment Group (4-14), n 269) was 130, the “>=30.0% decrease in migraines per month, percent of subjects” value (patients with migraine; Enrollment Group (4-14), n 269) was 48.3% and the “>=35.0% decrease in migraines per month, number of subjects” value (patients with migraine; Enrollment Group (4-14), n 269) was 117. The “>=35.0% decrease in migraines per month, percent of subjects” value (patients with migraine; Enrollment Group (4-14), n 269) was 43.5%, the “>=40.0% decrease in migraines per month, number of subjects” value (patients with migraine; Enrollment Group (4-14), n 269) was 100 and the “>=40.0% decrease in migraines per month, percent of subjects” value (patients with migraine; Enrollment Group (4-14), n 269) was 37.2%. The “>=45.0% decrease in migraines per month, number of subjects” value (patients with migraine; Enrollment Group (4-14), n 269) was 83, the “>=45.0% decrease in migraines per month, percent of subjects” value (patients with migraine; Enrollment Group (4-14), n 269) was 30.9% and the “>=50.0% decrease in migraines per month, number of subjects” value (patients with migraine; Enrollment Group (4-14), n 269) was 67. The “>=50.0% decrease in migraines per month, percent of subjects” value (patients with migraine; Enrollment Group (4-14), n 269) was 24.9%, the “>=20.0% decrease in migraines per month, number of subjects” value (patients with migraine; Enrollment Group (9-14), n 458) was 171 and the “>=20.0% decrease in migraines per month, percent of subjects” value (patients with migraine; Enrollment Group (9-14), n 458) was 37.3%. The “>=25.0% decrease in migraines per month, number of subjects” value (patients with migraine; Enrollment Group (9-14), n 458) was 150, the “>=25.0% decrease in migraines per month, percent of subjects” value (patients with migraine; Enrollment Group (9-14), n 458) was 32.8% and the “>=30.0% decrease in migraines per month, number of subjects” value (patients with migraine; Enrollment Group (9-14), n 458) was 125. The “>=30.0% decrease in migraines per month, percent of subjects” value (patients with migraine; Enrollment Group (9-14), n 458) was 27.3%, the “>=35.0% decrease in migraines per month, number of subjects” value (patients with migraine; Enrollment Group (9-14), n 458) was 101 and the “>=35.0% decrease in migraines per month, percent of subjects” value (patients with migraine; Enrollment Group (9-14), n 458) was 22.1%. The “>=40.0% decrease in migraines per month, number of subjects” value (patients with migraine; Enrollment Group (9-14), n 458) was 81, the “>=40.0% decrease in migraines per month, percent of subjects” value (patients with migraine; Enrollment Group (9-14), n 458) was 17.7% and the “>=45.0% decrease in migraines per month, number of subjects” value (patients with migraine; Enrollment Group (9-14), n 458) was 60. The “>=45.0% decrease in migraines per month, percent of subjects” value (patients with migraine; Enrollment Group (9-14), n 458) was 13.1%, the “>=50.0% decrease in migraines per month, number of subjects” value (patients with migraine; Enrollment Group (9-14), n 458) was 46 and the “>=50.0% decrease in migraines per month, percent of subjects” value (patients with migraine; Enrollment Group (9-14), n 458) was 10.0%. For the same compound, the “>=20.0% decrease (reduction in headache days per month of at least 20%), number of subjects” value (patients with migraine; Overall, of 1731 subjects) was 683, the “>=20.0% decrease (reduction in headache days per month of at least 20%), percent of subjects” value (patients with migraine; Overall, of 1731 subjects) was 39.5% and the “>=25.0% decrease (reduction in headache days per month of at least 25%), number of subjects” value (patients with migraine; Overall, of 1731 subjects) was 602. For the same compound, the “>=25.0% decrease (reduction in headache days per month of at least 25%), percent of subjects” value (patients with migraine; Overall, of 1731 subjects) was 34.8%, the “>=30.0% decrease (reduction in headache days per month of at least 30%), number of subjects” value (patients with migraine; Overall, of 1731 subjects) was 523 and the “>=30.0% decrease (reduction in headache days per month of at least 30%), percent of subjects” value (patients with migraine; Overall, of 1731 subjects) was 30.2%. The “>=35.0% decrease (reduction in headache days per month of at least 35%), number of subjects” value (patients with migraine; Overall, of 1731 subjects) was 442, the “>=35.0% decrease (reduction in headache days per month of at least 35%), percent of subjects” value (patients with migraine; Overall, of 1731 subjects) was 25.5% and the “>=40.0% decrease (reduction in headache days per month of at least 40%), number of subjects” value (patients with migraine; Overall, of 1731 subjects) was 362. For the same compound, the “>=40.0% decrease (reduction in headache days per month of at least 40%), percent of subjects” value (patients with migraine; Overall, of 1731 subjects) was 20.9%, the “>=45.0% decrease (reduction in headache days per month of at least 45%), number of subjects” value (patients with migraine; Overall, of 1731 subjects) was 287 and the “>=45.0% decrease (reduction in headache days per month of at least 45%), percent of subjects” value (patients with migraine; Overall, of 1731 subjects) was 16.6%. The “>=50.0% decrease (reduction in headache days per month of at least 50%), number of subjects” value (patients with migraine; Overall, of 1731 subjects) was 226, the “>=50.0% decrease (reduction in headache days per month of at least 50%), percent of subjects” value (patients with migraine; Overall, of 1731 subjects) was 13.1% and the “headache days per month, treatment phase versus observation phase” value (patients with migraine; Study 201) was “fewer headache days per month”. The “Hy's Law cases” value (patients with migraine; Study 201 interim analysis) was “no Hy's Law cases”, the “liver cases assessed as probably related to study drug” value (patients with migraine; Study 201 interim analysis) was “no liver cases” and the “incidence of serum ALT or AST >3×ULN” value (patients with migraine; Study 201 interim analysis, 75 mg up to once daily) was 1.0%. The liver safety signal (patients with migraine; Study 201 interim, including near-daily dosing (≥15 doses/month)) was “no liver safety signal detected”, the “Pooled Liver Function Test profile versus placebo” value ([1]; Study 301 and Study 302) was “Rimegepant was Similar to Placebo in Both Studies” and the “bilirubin elevations > 2 × ULN” value ([1]; across both Studies 301 and 302) was “*No bilirubin elevations > 2 × ULN across both Studies 301 and 302”. For the same compound, the “ALT >3 × ULN, number of subjects” value [1, 2] was 1, the “ALT >3 × ULN, percent of subjects” value [1, 2] was 0.1% and the “ALT >5 × ULN, number of subjects” value [1, 2] was 0. The “ALT >10 × ULN, number of subjects” value [1, 2] was 0, the “ALT >20 × ULN, number of subjects” value [1, 2] was 0 and the “ALT >ULN, number of subjects” value [1, 2] was 22. The “ALT >ULN, percent of subjects” value [1, 2] was 2.0%, the “AST >3 × ULN, number of subjects” value [1, 2] was 1 and the “AST >3 × ULN, percent of subjects” value [1, 2] was 0.1%. For the same compound, the “AST >5 × ULN, number of subjects” value [1, 2] was 0, the “AST >10 × ULN, number of subjects” value [1, 2] was 0 and the “AST >20 × ULN, number of subjects” value [1, 2] was 0. For the same compound, the “AST >ULN, number of subjects” value [1, 2] was 12 and the “AST >ULN, percent of subjects” value [1, 2] was 1.1%.
